Where two headings read alike, the source gives them in different places.
What was measured:
[1] = tested on: subjects with eosinophilic asthma
Description: Pulmonary function is measured by performing a spirometry, which measures forced expiratory volume in is (FEV1), the volume of air moved in the first second of exhalation, this is a well-accepted measure of asthma. Forced vital capacity (FVC) is the total volume of air exhaled during the entire forced expiratory volume (FEV) test. The FEV1/FVC ratio is a calculated measure that may provide a more specific measure of bronchoconstriction, independent of processes such as air trapping. Pulmonary function testing can be tested pre-bronchodilator (after waiting a sufficient time so that all bronchodilator medications have cleared) or post-bronchodilator, typically 15-30 minutes after inhaling a short-acting bronchodilator, such as albuterol. Bronchodilator reversibility (BDR) is calculated and assessed by analyzing FEV1 pre- and post-bronchodilator, and calculating the change both as absolute (ml) and percentage change.
Evaluation of Efficacy: Blood eosinophil count, changes in pulmonary function (FEV1), Asthma Control Questionnaire (ACQ-6), Asthma Control Questionnaire (ACQ-7), Asthma Quality of Life Questionnaire (AQLQ), exhaled nitric oxide, pharyngeal and nasal eosinophil peroxidase were collected periodically during the study.
To control the alpha level for testing 3 dose groups versus placebo for the primary endpoint and for testing FEV1, a closed hierarchical testing procedure was used in the following order: 1. First, the 300 mg/day dose group was tested versus placebo for change in blood absolute eosinophil count, and if this reached the <0.05 level then, 2. the 150 mg/day dose group was tested versus placebo at the 0.05 level for change in blood absolute eosinophil count, and if this reached the <0.05 level then, 3. the pooled 150 and 300 mg/day dose groups were tested versus placebo at the 0.05 level for change in FEV1 at Week 12, then 4. the 75 mg/day dose group was tested versus placebo at the 0.05 level for change in blood absolute eosinophil count, and if this reached the <0.05 level.

[2] = tested on: blood eosinophils
Description: The protocol enrolled symptomatic eosinophilic asthmatic subjects 18-75 years with moderate to greater disease severity as defined by GINA steps 3-5.
This clinical study is a randomized, double-blind, placebo-controlled, parallel-group, dose-ranging, multi-center study. Subjects received open-label placebo during the Run-in Period of the study, and subjects received double-blind study drug during the Primary Assessment Period of the study.
Duration of Treatment and Follow-up included: 1) Run-in Period: Screening through initiation of Baseline. Subjects underwent Screening assessments to assess whether they satisfied the eligibility criteria. They participated in the Run-in Period (of at least 12 days duration) to confirm a stable asthma medication regimen and to assess adherence to the dosing schedule, after which eligible subjects were randomized. 2) Primary Assessment Period: Baseline through completion of Week 12. After the collection of all Baseline assessments, subjects began receiving study drug for 12 weeks. […] The Week 12 visit was the Primary Outcome Visit for the study. Subjects took the last dose of study drug at the Week 12 visit. 3) Eosinophil Recovery Period: Conclusion of Week 12 assessments through Week 24. Following the Primary Assessment Period, subjects entered the Eosinophil Recovery Period. […] Specific sites were designated to perform either Week 16 or Week 18 visits for subjects enrolled at their site. The Week 20 and Week 24 visits were at the site or at a designated remote laboratory facility.
The study population was limited to subjects with a physician diagnosis of asthma for ≥12 months and eligibility criteria described herein.
The primary endpoint of this study was the change in blood absolute eosinophil count from Baseline to Week 12. Absolute eosinophil counts were transformed to the log 10 scale. To avoid taking the log of zero, zeroes were replaced with 5 cells/μL in conventional units and 0.005×10^9/L in the International System of Units (SI), which is 50% of the lower limit of quantification. The geometric mean of all eosinophil counts obtained between the Screening and Baseline visits were used to establish the baseline eosinophil count used in the efficacy analyses.
The primary analysis was a mixed-effect model with repeated-measures (MMRM) with terms for baseline, the 3 level of GINA treatment step as a categorical variable, treatment, visit, treatment by visit interaction, and baseline by visit interaction as fixed effects, and subjects as a random effect. An unstructured covariance was used.
Estimated LS means of treatment effects and estimated difference in treatment effects at each visit were back transformed to the original scale to present estimated geometric means for treatment effects and ratio of geometric means of treatment effects along with 95% CI.

[3] = 75 mg/day, Table 6D, timepoint printed as Analysis Baseline*
[4] = 75 mg/day, Table 6D, timepoint printed as Week 4
[5] = 150 mg/day, Table 6D, timepoint printed as Analysis Baseline*
[6] = 150 mg/day, Table 6D, timepoint printed as Week 4
[7] = 300 mg/day, Table 6D, timepoint printed as Analysis Baseline*
[8] = 300 mg/day, Table 6D, timepoint printed as Week 4
[9] = Week 4, pooled dexpramipexole arms, <50% AEC reduction at Week 12
[10] = Week 4, pooled dexpramipexole arms, ≥50% AEC reduction at Week 12
[11] = Week 8, pooled dexpramipexole arms, ≥50% AEC reduction at Week 12
[12] = Week 12, pooled dexpramipexole arms, <50% AEC reduction at Week 12
[13] = Week 12, pooled dexpramipexole arms, ≥50% AEC reduction at Week 12
[14] = Week 16 or Week 18, pooled dexpramipexole arms, ≥50% AEC reduction at Week 12
[15] = 75 mg/day, Week 12, efficacy population N = 22
[16] = 150 mg/day, Week 12, efficacy population N = 24
[17] = 300 mg/day, Week 12, efficacy population N = 28

## CCCN[C@@H]1CCc2nc(N)sc2C1 [dexpramipexole, (6R)-2-amino-4,5,6,7-tetrahydro-6-(propylamino) benzothiazole]
[1]; [3]
  Pre-Bronchodilator FEV1 % change, mean: 12.0%
  Pre-Bronchodilator FEV1 % change, median: 10.7%
  Pre-Bronchodilator FEV1 change, mean: 0.237 L
  Pre-Bronchodilator FEV1 change, median: 0.170 L
  Pre-Bronchodilator FEV1 observed, mean: 228 L
  Pre-Bronchodilator FEV1 observed, median: 2.24 L
[1]; [4]
  Pre-Bronchodilator FEV1 % change, mean: 9.27%
  Pre-Bronchodilator FEV1 % change, median: 5.48%
  Pre-Bronchodilator FEV1 change, mean: 0.207 L
  Pre-Bronchodilator FEV1 change, median: 0.115 L
  Pre-Bronchodilator FEV1 observed, mean: 2.24 L
  Pre-Bronchodilator FEV1 observed, median: 2.08 L
[1]; 75 mg/day, Week 4
  FEV1 change from Baseline LSM: 0.150 L
  FEV1 difference versus Placebo LSM: 0.165 L
  Pre-Bronchodilator FEV1 % change, median: 4.85%
  Pre-Bronchodilator FEV1, % change from Baseline, mean: 6.25%
  Pre-Bronchodilator FEV1 change, mean: 0.130 L
  Pre-Bronchodilator FEV1 change, median: 0.0750 L
  Pre-Bronchodilator FEV1 observed, mean: 2.10 L
  Pre-Bronchodilator FEV1 observed, median: 2.10 L
  Pre-Bronchodilator Percent Predicted FEV1 % change, mean: 62.4%
  Pre-Bronchodilator Percent Predicted FEV1 % change, median: 4.85%
  Pre-Bronchodilator Percent Predicted FEV1 change, mean: 3.59%
  Pre-Bronchodilator Percent Predicted FEV1 change, median: 2.69%
  Pre-Bronchodilator Percent Predicted FEV1 observed, mean: 62.2%
  Pre-Bronchodilator Percent Predicted FEV1 observed, median: 64.4%
[1]; 75 mg/day, Week 8
  FEV1 change from Baseline LSM: 0.204 L
  FEV1 difference versus Placebo LSM: 0.210 L
  Pre-Bronchodilator FEV1, % change from Baseline, mean: 12.0%
[1]; 75 mg/day, Week 12
  FEV1 change from Baseline LSM: 0.168 L
  FEV1 difference versus Placebo LSM: 0.121 L
  Pre-Bronchodilator FEV1, % change from Baseline, mean: 9.27%
[1]; 75 mg/day, Week 16 or Week 18
  FEV1 change from Baseline LSM: 0.295 L
  FEV1 difference versus Placebo LSM: 0.327 L
  Pre-Bronchodilator FEV1, % change from Baseline, mean: 17.6%
[1]; 75 mg/day, Weeks 4, 8, 12, & 16/18 pooled
  ΔFEV1 vs Placebo LSM (SEM), pooled data: 206 mL
[1]; [5]
  Pre-Bronchodilator FEV1 % change, mean: 7.57%
  Pre-Bronchodilator FEV1 % change, median: 3.88%
  Pre-Bronchodilator FEV1 change, mean: 0.130 L
  Pre-Bronchodilator FEV1 change, median: 0.0900 L
  Pre-Bronchodilator FEV1 observed, mean: 2.21 L
  Pre-Bronchodilator FEV1 observed, median: 2.22 L
[1]; [6]
  Pre-Bronchodilator FEV1 % change, mean: 3.14%
  Pre-Bronchodilator FEV1 % change, median: −1.72%
  Pre-Bronchodilator FEV1 change, mean: 0.0414 L
  Pre-Bronchodilator FEV1 change, median: -0.0400 L
  Pre-Bronchodilator FEV1 observed, mean: 2.12 L
  Pre-Bronchodilator FEV1 observed, median: 2.11 L
[1]; 150 mg/day, Week 4
  FEV1 change from Baseline LSM: 0.151 L
  FEV1 difference versus Placebo LSM: 0.166 L
  Pre-Bronchodilator FEV1 % change, median: 4.54%
  Pre-Bronchodilator FEV1, % change from Baseline, mean: 7.31%
  Pre-Bronchodilator FEV1 change, mean: 0.123 L
  Pre-Bronchodilator FEV1 change, median: 0.0800 L
  Pre-Bronchodilator FEV1 observed, mean: 2.15 L
  Pre-Bronchodilator FEV1 observed, median: 2.05 L
  Pre-Bronchodilator Percent Predicted FEV1 % change, mean: 7.31%
  Pre-Bronchodilator Percent Predicted FEV1 % change, median: 4.54%
  Pre-Bronchodilator Percent Predicted FEV1 change, mean: 3.95%
  Pre-Bronchodilator Percent Predicted FEV1 change, median: 2.85%
  Pre-Bronchodilator Percent Predicted FEV1 observed, mean: 67.4%
  Pre-Bronchodilator Percent Predicted FEV1 observed, median: 69.2%
[1]; 150 mg/day, Week 8
  FEV1 change from Baseline LSM: 0.166 L
  FEV1 difference versus Placebo LSM: 0.173 L
  Pre-Bronchodilator FEV1, % change from Baseline, mean: 7.57%
[1]; 150 mg/day, Week 12
  FEV1 change from Baseline LSM: 0.0601 L
  Pre-Bronchodilator FEV1, % change from Baseline, mean: 3.14%
[1]; 150 mg/day, Week 16 or Week 18
  FEV1 difference versus Placebo LSM: 0.161 L
  Pre-Bronchodilator FEV1, % change from Baseline, mean: 7.71%
[1]; 150 mg/day, Weeks 4, 8, 12, & 16/18 pooled
  ΔFEV1 vs Placebo LSM (SEM), pooled data: 126 mL
[1]; 300 mg/day arm, averaged Week 8 through Week 16/18
  Placebo-corrected FEV1 increase from baseline: counts. In the 300 mg/day arm, placebo-corrected FEV1 increased more than 200 mL from baseline, averaged
[1]; [7]
  Pre-Bronchodilator FEV1 % change, mean: 15.5%
  Pre-Bronchodilator FEV1 % change, median: 10.5%
  Pre-Bronchodilator FEV1 change, mean: 0.277 L
  Pre-Bronchodilator FEV1 change, median: 0.250 L
  Pre-Bronchodilator FEV1 observed, mean: 2.32 L
  Pre-Bronchodilator FEV1 observed, median: 2.40 L
[1]; [8]
  Pre-Bronchodilator FEV1 % change, mean: 12.5%
  Pre-Bronchodilator FEV1 % change, median: 10.0%
  Pre-Bronchodilator FEV1 change, mean: 0.236 L
  Pre-Bronchodilator FEV1 change, median: 0.210 L
  Pre-Bronchodilator FEV1 observed, mean: 2.29 L
  Pre-Bronchodilator FEV1 observed, median: 2.45 L
[1]; 300 mg/day, Week 4
  FEV1 change from Baseline LSM: 0.0685 L
  FEV1 difference versus Placebo LSM: 0.0838 L
  Pre-Bronchodilator FEV1 % change, median: 3.95%
  Pre-Bronchodilator FEV1, % change from Baseline, mean: 1.42%
  Pre-Bronchodilator FEV1 change, mean: 0.0417 L
  Pre-Bronchodilator FEV1 change, median: 0.0700 L
  Pre-Bronchodilator FEV1 observed, mean: 2.14 L
  Pre-Bronchodilator FEV1 observed, median: 2.16 L
  Pre-Bronchodilator Percent Predicted FEV1 % change, mean: 1.42%
  Pre-Bronchodilator Percent Predicted FEV1 % change, median: 3.94%
  Pre-Bronchodilator Percent Predicted FEV1 change, mean: 0.607%
  Pre-Bronchodilator Percent Predicted FEV1 change, median: 2.34%
  Pre-Bronchodilator Percent Predicted FEV1 observed, mean: 62.5%
  Pre-Bronchodilator Percent Predicted FEV1 observed, median: 62.3%
[1]; 300 mg/day, Week 8
  FEV1 change from Baseline LSM: 0.248 L
  FEV1 difference versus Placebo LSM: 0.254 L
  Pre-Bronchodilator FEV1, % change from Baseline, mean: 15.5%
[1]; 300 mg/day, Week 12
  FEV1 change from Baseline LSM: 0.209 L
  FEV1 difference versus Placebo LSM: 0.162 L
  Pre-Bronchodilator FEV1, % change from Baseline, mean: 12.5%
[1]; 300 mg/day, Week 16 or Week 18
  FEV1 change from Baseline LSM: 0.207 L
  FEV1 difference versus Placebo LSM: 0.240 L
  Pre-Bronchodilator FEV1, % change from Baseline, mean: 10.8%
[1]; 300 mg/day, Weeks 4, 8, 12, & 16/18 pooled
  ΔFEV1 vs Placebo LSM (SEM), pooled data: 185 mL
[1]; 150 and 75 mg/day arms
  Improvement in FEV1: Week 8 through Week 16/18. Substantial improvements in FEV1 were also seen in the 150 and 75 mg/day arms.
[1]; All Dex arms pooled, Week 4
  ΔFEV1 vs Placebo LSM (SEM), pooled data: 138 mL
[1]; All Dex arms pooled, Week 8
  ΔFEV1 vs Placebo LSM (SEM), pooled data: 212 mL
[1]; All Dex arms pooled, Week 12
  ΔFEV1 vs Placebo LSM (SEM), pooled data: 99 mL
[1]; All Dex arms pooled, Week 16/18
  ΔFEV1 vs Placebo LSM (SEM), pooled data: 233 mL
[1]; All Dex arms pooled, Weeks 4, 8, 12, & 16/18 pooled
  ΔFEV1 vs Placebo LSM (SEM), pooled data: 173 mL
[1]; Table 5, FIG. 3, FIG. 6
  Magnitude and statistical significance of FEV1 improvement from baseline compared with other drugs: comparable or greater than that demonstrated in phase 2 clinical trials of benralizumab and mepolizumab
[1]; [9]
  Pre-Bronchodilator FEV1 Change from Baseline LSM: 0.0742 L
  Pre-Bronchodilator FEV1 Difference versus Placebo LSM: 0.0859 L
[1]; [10]
  Pre-Bronchodilator FEV1 Change from Baseline LSM: 0.163 L
  Pre-Bronchodilator FEV1 Difference versus Placebo LSM: 0.175 L
[1]; Week 8, pooled dexpramipexole arms, <50% AEC reduction at Week 12
  Pre-Bronchodilator FEV1 Difference versus Placebo LSM: 0.132 L
[1]; [11]
  Pre-Bronchodilator FEV1 Change from Baseline LSM: 0.275 L
  Pre-Bronchodilator FEV1 Difference versus Placebo LSM: 0.276 L
[1]; [12]
  Pre-Bronchodilator FEV1 Change from Baseline LSM: 0.00797 L
  Pre-Bronchodilator FEV1 Difference versus Placebo LSM: -0.0448 L
[1]; [13]
  Pre-Bronchodilator FEV1 Change from Baseline LSM: 0.261 L
  Pre-Bronchodilator FEV1 Difference versus Placebo LSM: 0.208 L
[1]; Week 16 or Week 18, pooled dexpramipexole arms, <50% AEC reduction at Week 12
  Pre-Bronchodilator FEV1 Difference versus Placebo LSM: 0.169 L
[1]; [14]
  Pre-Bronchodilator FEV1 Change from Baseline LSM: 0.258 L
  Pre-Bronchodilator FEV1 Difference versus Placebo LSM: 0.287 L
[1]; all post-baseline time points (Table 12, FIG. 5)
  FEV1 in hematologic responders: significant increase
[2]; [15]
  Subjects with AEC ≤50 cells/pL, %: (22.7%)
  Subjects with AEC ≥50% reduction from Baseline to Week 12, %: (50.07%)
[2]; [16]
  Subjects with AEC ≤50 cells/pL, %: (37.5%)
  Subjects with AEC ≥50% reduction from Baseline to Week 12, %: (62.5%)
[2]; [17]
  Subjects with AEC ≤50 cells/pL, %: (42.9%)
  Subjects with AEC ≥50% reduction from Baseline to Week 12, %: (57.1%)
[2]; Week 12 compared with baseline, up to 300 mg/day
  Reduction in AEC: ≤ 80%
[2]; all dose groups
  Dexpramipexole treated subjects with a greater than or equal to 50% reduction in AEC: approximately 60%
[2]; blood eosinophil count of ≤50 cells/μL at week 12, dose-dependent
  Number of hematologic responders compared with placebo: significantly increased

Source: patent US20240041840A1 (Areteia Therapeutics, Inc., priority 2020, published 2024)
